Measured values as given in PubChem BioAssay AID2060508 (Molecular Pharmacology Branch, DTP, NCI, 2025).

Test system: 454973-116-R2-J3-PDC spheroids, viability, % test/control
Experiment: Anticancer human tumor 454973-116-R2-J3-PDC patient-derived pancreatic carcinoma cell line growth inhibition [GQUAD]
Settings: spheroids with HUVEC and MSC; for IC50: curve of first compound; for viability, T/C: stronger effect = lower value; active = viability on the fitted dose curve at most 10% of control; inactive = the rest
Method in brief: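 Viability of tumor cells grown as complex spheroids with endothelial and stromal cells, exposed to drug combinations. Top concentration at or near clinical Cmax (else 10 microM), diluted in half-log increments.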

[1] = second compound 0.0316 µM, first compound 0.0316 µM
[2] = second compound 0.0316 µM, first compound 0.1 µM
[3] = second compound 0.0316 µM, first compound 0.316 µM
[4] = second compound 0.0316 µM, first compound 1 µM
[5] = second compound 0.0316 µM, first compound 3.16 µM
[6] = second compound 0.0316 µM, first compound 10 µM
[7] = second compound 0.1 µM, first compound 0.0316 µM
[8] = second compound 0.1 µM, first compound 0.1 µM
[9] = second compound 0.1 µM, first compound 0.316 µM
[10] = second compound 0.1 µM, first compound 1 µM
[11] = second compound 0.1 µM, first compound 3.16 µM
[12] = second compound 0.1 µM, first compound 10 µM
[13] = second compound 0.316 µM, first compound 0.0316 µM
[14] = second compound 0.316 µM, first compound 0.1 µM
[15] = second compound 0.316 µM, first compound 0.316 µM
[16] = second compound 0.316 µM, first compound 1 µM
[17] = second compound 0.316 µM, first compound 3.16 µM
[18] = second compound 0.316 µM, first compound 10 µM
[19] = second compound 1 µM, first compound 0.0316 µM
[20] = second compound 1 µM, first compound 0.1 µM
[21] = second compound 1 µM, first compound 0.316 µM
[22] = second compound 1 µM, first compound 1 µM
[23] = second compound 1 µM, first compound 3.16 µM
[24] = second compound 1 µM, first compound 10 µM
[25] = second compound 3.16 µM, first compound 0.0316 µM
[26] = second compound 3.16 µM, first compound 0.1 µM
[27] = second compound 3.16 µM, first compound 0.316 µM
[28] = second compound 3.16 µM, first compound 1 µM
[29] = second compound 3.16 µM, first compound 3.16 µM
[30] = second compound 3.16 µM, first compound 10 µM
[31] = second compound 10 µM, first compound 0.0316 µM
[32] = second compound 10 µM, first compound 0.1 µM
[33] = second compound 10 µM, first compound 0.316 µM
[34] = second compound 10 µM, first compound 1 µM
[35] = second compound 10 µM, first compound 3.16 µM
[36] = second compound 10 µM, first compound 10 µM
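Note: spheroids exposed to compounds for seven days.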
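Throughout, for viability, T/C: 100% = DMSO vehicle control viability.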

CC1COCCN1c1cc(C2(O)CC3CCC(C2)O3)c2cnn(-c3ccn[nH]3)c2n1 (stereo not given) + Cc1cnc(CNC(=O)c2c(=O)c3ccc(N4CCCN(C)CC4)nc3n3c2sc2ccccc23)cn1
< 31.6 nM: IC50 (second compound 0.1 µM) | IC50 (second compound 0.316 µM) | IC50 (second compound 1 µM) | IC50 (second compound 3.16 µM) | IC50 (second compound 10 µM)
31.8 nM: IC50 (second compound 0.0316 µM)
active: viability, T/C [30] 7.65% | viability, T/C [31] 0.12% | viability, T/C [32] 0.16% | viability, T/C [33] 0.21% | viability, T/C [34] 0.15% | viability, T/C [35] 0.23% | viability, T/C [36] 0.19%
inactive: viability, T/C [1] 50.7% | viability, T/C [2] 27.5% | viability, T/C [3] 19.5% | viability, T/C [4] 20.4% | viability, T/C [5] 18.7% | viability, T/C [6] 9.73% | viability, T/C [7] 35% | viability, T/C [8] 22.3% | viability, T/C [9] 19.1% | viability, T/C [10] 19% | viability, T/C [11] 17.7% | viability, T/C [12] 12.7% | viability, T/C [13] 29.6% | viability, T/C [14] 25.4% | viability, T/C [15] 24.9% | viability, T/C [16] 22% | viability, T/C [17] 18.3% | viability, T/C [18] 10.8% | viability, T/C [19] 38.9% | viability, T/C [20] 29.1% | viability, T/C [21] 27.5% | viability, T/C [22] 23.8% | viability, T/C [23] 20% | viability, T/C [24] 11.7% | viability, T/C [25] 37.9% | viability, T/C [26] 32.3% | viability, T/C [27] 31.6% | viability, T/C [28] 23.4% | viability, T/C [29] 18.2%

CC1COCCN1c1cc(C2(S(C)(=N)=O)CC2)nc(-c2ccnc3[nH]ccc23)n1 (stereo not given) + Cc1[nH]c2ccc(F)cc2c1-c1nc2c3cccnc3c3ncccc3c2[nH]1
5870 nM: IC50 (second compound 0.0316 µM)
3490 nM: IC50 (second compound 10 µM)
5070 nM: IC50 (second compound 0.316 µM)
6490 nM: IC50 (second compound 1 µM)
4680 nM: IC50 (second compound 3.16 µM)
5360 nM: IC50 (second compound 0.1 µM)
inactive: viability, T/C [1] 101% | viability, T/C [2] 102% | viability, T/C [3] 121% | viability, T/C [4] 96.5% | viability, T/C [5] 76% | viability, T/C [6] 28.1% | viability, T/C [7] 106% | viability, T/C [8] 96.9% | viability, T/C [9] 110% | viability, T/C [10] 107% | viability, T/C [11] 68.7% | viability, T/C [12] 27.9% | viability, T/C [13] 99.7% | viability, T/C [14] 110% | viability, T/C [15] 110% | viability, T/C [16] 103% | viability, T/C [17] 64.8% | viability, T/C [18] 28.7% | viability, T/C [19] 106% | viability, T/C [20] 104% | viability, T/C [21] 109% | viability, T/C [22] 108% | viability, T/C [23] 72.6% | viability, T/C [24] 36.5% | viability, T/C [25] 98.3% | viability, T/C [26] 105% | viability, T/C [27] 95.7% | viability, T/C [28] 87% | viability, T/C [29] 60.2% | viability, T/C [30] 30.3% | viability, T/C [31] 86.7% | viability, T/C [32] 84% | viability, T/C [33] 89.6% | viability, T/C [34] 86.2% | viability, T/C [35] 51.8% | viability, T/C [36] 30.1%

O=C(NO)c1cnc(N2CCN(S(=O)(=O)c3ccc4ccccc4c3)CC2)nc1 + CN(C)c1ccc(Nc2c3ccc(NC(=O)CCN4CCCC4)cc3nc3cc(NC(=O)CCN4CCCC4)ccc23)cc1
212 nM: IC50 (second compound 0.0316 µM)
active: viability, T/C [4] 3.06% | viability, T/C [5] 0.12% | viability, T/C [6] 1% | viability, T/C [10] 2.6% | viability, T/C [11] 0.1% | viability, T/C [12] 0.19% | viability, T/C [16] 3.25% | viability, T/C [17] 0.11% | viability, T/C [18] 0.17% | viability, T/C [22] 3.47% | viability, T/C [23] 0.09% | viability, T/C [24] 0.35% | viability, T/C [28] 2.84% | viability, T/C [29] 0.54% | viability, T/C [30] 0.91% | viability, T/C [34] 2.57% | viability, T/C [35] 0.19% | viability, T/C [36] 0.77%
197 nM: IC50 (second compound 0.316 µM)
141 nM: IC50 (second compound 10 µM)
202 nM: IC50 (second compound 0.1 µM)
178 nM: IC50 (second compound 3.16 µM)
inactive: viability, T/C [1] 107% | viability, T/C [2] 89.7% | viability, T/C [3] 28.9% | viability, T/C [7] 102% | viability, T/C [8] 83.4% | viability, T/C [9] 28.9% | viability, T/C [13] 86% | viability, T/C [14] 83.4% | viability, T/C [15] 26.8% | viability, T/C [19] 81.4% | viability, T/C [20] 77.2% | viability, T/C [21] 30.3% | viability, T/C [25] 77.8% | viability, T/C [26] 70.8% | viability, T/C [27] 29.4% | viability, T/C [31] 59.5% | viability, T/C [32] 55.8% | viability, T/C [33] 34.1%
195 nM: IC50 (second compound 1 µM)

CCc1c2c(nc3ccc(O)cc13)-c1cc3c(c(=O)n1C2)COC(=O)[C@]3(O)CC + Cc1[nH]c2ccc(F)cc2c1-c1nc2c3cccnc3c3ncccc3c2[nH]1
1.67 nM: IC50 (second compound 0.316 µM)
inactive: viability, T/C (second compound 0.0316 µM, first compound 0.000999 µM) 62.5% | viability, T/C (second compound 0.0316 µM, first compound 0.00316 µM) 26.2% | viability, T/C (second compound 0.0316 µM, first compound 0.00999 µM) 21.5% | viability, T/C [1] 14.5% | viability, T/C (second compound 0.1 µM, first compound 0.000999 µM) 63.1% | viability, T/C (second compound 0.1 µM, first compound 0.00316 µM) 21.8% | viability, T/C (second compound 0.1 µM, first compound 0.00999 µM) 19.9% | viability, T/C [7] 13% | viability, T/C (second compound 0.316 µM, first compound 0.000999 µM) 67.5% | viability, T/C (second compound 0.316 µM, first compound 0.00316 µM) 25.7% | viability, T/C (second compound 0.316 µM, first compound 0.00999 µM) 19.2% | viability, T/C [13] 14.6% | viability, T/C (second compound 1 µM, first compound 0.000999 µM) 67.3% | viability, T/C (second compound 1 µM, first compound 0.00316 µM) 22.5% | viability, T/C (second compound 1 µM, first compound 0.00999 µM) 22% | viability, T/C [19] 13.3% | viability, T/C (second compound 3.16 µM, first compound 0.000999 µM) 59.1% | viability, T/C (second compound 3.16 µM, first compound 0.00316 µM) 21.1% | viability, T/C (second compound 3.16 µM, first compound 0.00999 µM) 21.8% | viability, T/C [25] 15.2% | viability, T/C (second compound 3.16 µM, first compound 0.0999 µM) 8.28% | viability, T/C (second compound 10 µM, first compound 0.000999 µM) 63.6% | viability, T/C (second compound 10 µM, first compound 0.00316 µM) 25.6% | viability, T/C (second compound 10 µM, first compound 0.00999 µM) 18.2% | viability, T/C [31] 14.2%
1.53 nM: IC50 (second compound 0.0316 µM)
1.54 nM: IC50 (second compound 10 µM)
1.47 nM: IC50 (second compound 0.1 µM)
1.34 nM: IC50 (second compound 3.16 µM)
active: viability, T/C (second compound 0.0316 µM, first compound 0.0999 µM) 7.97% | viability, T/C [3] 3.8% | viability, T/C (second compound 0.1 µM, first compound 0.0999 µM) 8.7% | viability, T/C [9] 3.86% | viability, T/C (second compound 0.316 µM, first compound 0.0999 µM) 7.62% | viability, T/C [15] 3.05% | viability, T/C (second compound 1 µM, first compound 0.0999 µM) 7.87% | viability, T/C [21] 5.39% | viability, T/C [27] 5.63% | viability, T/C (second compound 10 µM, first compound 0.0999 µM) 8.05% | viability, T/C [33] 3.9%
1.62 nM: IC50 (second compound 1 µM)

CC1COCCN1c1cc(C2(S(C)(=N)=O)CC2)nc(-c2ccnc3[nH]ccc23)n1 (stereo not given) + CN(C)c1ccc(Nc2c3ccc(NC(=O)CCN4CCCC4)cc3nc3cc(NC(=O)CCN4CCCC4)ccc23)cc1
5380 nM: IC50 (second compound 0.0316 µM)
inactive: viability, T/C [1] 110% | viability, T/C [2] 105% | viability, T/C [3] 105% | viability, T/C [4] 102% | viability, T/C [5] 64.1% | viability, T/C [6] 33.5% | viability, T/C [7] 109% | viability, T/C [8] 99.4% | viability, T/C [9] 115% | viability, T/C [10] 108% | viability, T/C [11] 62.9% | viability, T/C [12] 34.5% | viability, T/C [13] 104% | viability, T/C [14] 103% | viability, T/C [15] 99.8% | viability, T/C [16] 100% | viability, T/C [17] 71.1% | viability, T/C [18] 33% | viability, T/C [19] 94.4% | viability, T/C [20] 95.1% | viability, T/C [21] 110% | viability, T/C [22] 77.2% | viability, T/C [23] 63.9% | viability, T/C [24] 34.3% | viability, T/C [25] 89% | viability, T/C [26] 90.8% | viability, T/C [27] 90.1% | viability, T/C [28] 82.8% | viability, T/C [29] 66.2% | viability, T/C [30] 37.7% | viability, T/C [31] 80.5% | viability, T/C [32] 82.1% | viability, T/C [33] 83.7% | viability, T/C [34] 78.4% | viability, T/C [35] 59.8% | viability, T/C [36] 41.5%
5140 nM: IC50 (second compound 1 µM)
6070 nM: IC50 (second compound 3.16 µM)
5840 nM: IC50 (second compound 10 µM)
5980 nM: IC50 (second compound 0.316 µM)
5350 nM: IC50 (second compound 0.1 µM)
